“Also recorded” adds a separate entry of the source.
Tests used:
PAEC = assay: Mitochondrial bioenergetics (XF24 Analyzer, OCR) in PAEC; assay type: cell-based, ovine; conditions: 4αPDD
Method: (§1) Primary cultures of ovine pulmonary arterial endothelial cells (PAEC) were isolated as described previously (L. K. Kelly, Am J Physiol Lung Cell Mol Physiol, 286(5), L984-91 (2004)). Briefly, cells were maintained in Dulbecco's modified Eagle medium (DMEM) supplemented with 10% fetal calf serum (Hyclone, Logan, UT), antibiotics/antimycotic (500 IU Penicillin, 500 μg/ml Streptomycin, 1.25 μg/ml Amphotericin B; MediaTech, Herndon, VA) at 37° C. in a humidified atmosphere with 5% CO2 and 95% air. Cells were used for experiments between passages 9-14, seeded at ˜50% confluence, and utilized when fully confluent.
The XF24 Analyzer (Seahorse Biosciences) and XF CELL MITO STRESS™ Test Kit (#101706-100; Seahorse Biosciences) were used for the mitochondrial bioenergetic analyses. The optimum number of cells/well was determined to be 75,000/0.32 cm^2. At the end of each study, the XF24 culture microplates were incubated in a CO2-free XF prep station at 37° C. for 45 min to allow temperature and pH calibration. Subsequently, each well was sequentially injected Oligomycin (1 μM final concentration), carbonyl cyanide 4-(trifluoromethoxy) phenylhydrazone (FCCP, 1 μM final concentration), and Rotenone+antimycin A (1 μM final concentration of each) and measured the oxygen consumption rate (OCR). These agents were used to determine basal mitochondrial respiration, reserve respiratory capacity and maximal respiratory capacity measurements in pmols/min of oxygen consumed.

PKC = PKC activity, dot-blot of PKC-phosphorylated proteins; assay type: cell-based, ovine; conditions: PAEC; 4αPDD 10 μM, 2, 4 and 6 hours
Method: as §1
Activation of PKC in control and 4αPDD-treated EC was evaluated using dot-blot method and antibodies specific to PKC-phosphorylated proteins. The cell lysates were transferred on nitrocellulose membrane using Bio-Dot Microfiltration apparatus (Bio-Rad) according to Instruction Manual. To detect and evaluate levels of PKC-phosphorylated proteins, Phospho-(Ser) PKC Substrate rabbit polyclonal antibody (Cell Signaling) was used. After visualization of PKC-phosphorylated proteins, the membrane was stripped and re-probed with β-actin antibody for normalization.

TRPV4 [1] = conditions: literature (Alvarez, Circ Res 2006); cited from earlier work
TRPV4 [2] = assay: Cytosolic Ca2+ concentration ([Ca2+]cyt), fura-2/AM loaded PAEC; assay type: cell-based, ovine; conditions: 4αPDD 10 μM
Method: as §1
PAEC were grown at 50-60% confluence on 25-mm-diameter circular glass coverslips. […] The fluorescence emission (at 520 nm) was captured with an EM-CC camera (Evolve; Photometric, Tucson, AZ) and analyzed using NIS Elements 3.2 software (Nikon). [Ca^2+]cyt is expressed as 340/380 fluorescence ratio within an area of interest in the peripheral area of a cell recorded every 2 s. […] [Ca^2+]cyt was calculated using the following equation: [Ca^2+]cyt=Kd×(Sf2/Sf1)×(R−Rmin)/(Rmax−R). Kd (225 nM) is the dissociation constant of the Ca2+-fura-2 complex; and Sf2 and Sf1 and Rmin and Rmax were calculated using a standard protocol (G. Grynkiewicz, J Biol Chem, 260(6), 3440-50 (1985)). […]

CCCCCCCCCC(=O)O[C@@H]1[C@@H](C)[C@@]2(O)[C@@H](C=C(CO)C[C@@]3(O)C(=O)C(C)=C[C@@H]23)[C@@H]2C(C)(C)[C@]12OC(=O)CCCCCCCCC [4αPDD, 4α-Phorbol-12,13 didecanoate]
maximum respiratory capacity (PAEC): reductions
mitochondrial basal O2 consumption (PAEC): reductions
spare respiratory capacity (PAEC): reductions
PKC activity (PKC): increases PKC activity
lung injury on 4αPDD exposure (TRPV4 [1]): leads to Ca^2+ entry-dependent acute lung injury, disruption of the lung barrier, and alveolar flooding
cytosolic free Ca2+ concentration ([Ca2+]cyt) (TRPV4 [2]): transient increase of [Ca^2+]cyt; also recorded: induced a transient increase

Reference: patent US20240002437A1, “COMPOSITIONS AND METHODS OF TREATING INFLAMMATORY LUNG DISEASES” (priority 2020, published 2024)
